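Values below derive from 48-hour exposures of cells grown in 96-well plates, with endpoints linearly interpolated between the two concentrations bracketing the appropriate inhibition level. Here, GI50 denotes the concentration required for 50% inhibition of growth.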 Calls of active or inactive are those of the source. No stated cut-off is given here; in the data, active = GI50 up to about 1.1 µM and inactive = higher.
Legend:
Test in all cases: NCI-60 cell line screen, 48 h
[1] = system: ACHN
[2] = system: TK-10
[3] = system: HL-60
[4] = system: UACC-257
[5] = system: KM-20L2
[6] = system: SNB-19
[7] = system: SW-620
[8] = system: SNB-78
[9] = system: KM12
[10] = system: SK-MEL-2
[11] = system: OVCAR-5
[12] = system: A549
[13] = system: DMS-273
[14] = system: OVCAR-4
[15] = system: 786-0
[16] = system: SNB-75
[17] = system: Malme-3M
[18] = system: NCI-H226
[19] = system: M14
[20] = system: RXF 393
[21] = system: DMS-114
[22] = system: NCI-H460
[23] = system: K562
[24] = system: SK-MEL-28
[25] = system: SK-MEL-5
[26] = system: SF-539
[27] = system: HCT-116
[28] = system: XF498
[29] = system: HCC 2998
[30] = system: MOLT-4
[31] = system: NCI-H23
[32] = system: RXF 631
[33] = system: OVCAR-3
[34] = system: IGROV-1
[35] = system: CAKI-1
[36] = system: SN12C
[37] = system: NCI-H522
[38] = system: UO-31
[39] = system: UACC-62
[40] = system: HOP-92
[41] = system: EKVX
[42] = system: U-251
[43] = system: M19-MEL
[44] = system: HT-29
[45] = system: OVCAR-8
[46] = system: SF-268
[47] = system: CCRF-CEM
[48] = system: SR
[49] = system: HOP-62
[50] = system: DLD-1
[51] = system: SK-OV-3
[52] = system: LXFL 529
[53] = system: SF-295
[54] = system: COLO 205
[55] = system: LOX IMVI
[56] = system: HCT-15
[57] = system: RPMI-8226
[58] = system: A498

## CO/C=C/c1cc2c(cc1C(OC)OC)OCO2
[1]
  GI50: 83.4 µM (inactive)
[2]
  GI50: 55 µM (inactive)
[3]
  GI50: 3.56 µM (inactive)
[4]
  GI50: > 100 µM (inactive)
[5]
  GI50: 35.2 µM (inactive)
[6]
  GI50: 36.7 µM (inactive)
[7]
  GI50: 50 µM (inactive)
[8]
  GI50: > 100 µM (inactive)
[9]
  GI50: 52.6 µM (inactive)
[10]
  GI50: 82.2 µM (inactive)
[11]
  GI50: 52.8 µM (inactive)
[12]
  GI50: > 100 µM (inactive)
[13]
  GI50: 30.3 µM (inactive)
[14]
  GI50: > 100 µM (inactive)
[15]
  GI50: 42.6 µM (inactive)
[16]
  GI50: 16.4 µM (inactive)
[17]
  GI50: 53.6 µM (inactive)
[18]
  GI50: 57 µM (inactive)
[19]
  GI50: 31.1 µM (inactive)
[20]
  GI50: 40.9 µM (inactive)
[21]
  GI50: 32.9 µM (inactive)
[22]
  GI50: 36 µM (inactive)
[23]
  GI50: 29.9 µM (inactive)
[24]
  GI50: > 100 µM (inactive)
[25]
  GI50: 17.4 µM (inactive)
[26]
  GI50: 34.7 µM (inactive)
[27]
  GI50: 27.5 µM (inactive)
[28]
  GI50: 33.4 µM (inactive)
[29]
  GI50: > 100 µM (inactive)
[30]
  GI50: 33.7 µM (inactive)
[31]
  GI50: 54 µM (inactive)
[32]
  GI50: 43.7 µM (inactive)
[33]
  GI50: 29.9 µM (inactive)
[34]
  GI50: 60.1 µM (inactive)
[35]
  GI50: 29.5 µM (inactive)
[36]
  GI50: 79.3 µM (inactive)
[37]
  GI50: > 100 µM (inactive)
[38]
  GI50: 26.5 µM (inactive)
[39]
  GI50: 22.6 µM (inactive)
[40]
  GI50: 40.2 µM (inactive)
[41]
  GI50: 69.7 µM (inactive)
[42]
  GI50: 53.3 µM (inactive)
[43]
  GI50: 76.4 µM (inactive)
[44]
  GI50: 39.4 µM (inactive)
[45]
  GI50: > 100 µM (inactive)
[46]
  GI50: 52.1 µM (inactive)
[47]
  GI50: 39.7 µM (inactive)
[48]
  GI50: 44.6 µM (inactive)
[49]
  GI50: 26.7 µM (inactive)
[50]
  GI50: 36.1 µM (inactive)
[51]
  GI50: 26.1 µM (inactive)

## COc1ccc(-c2cc(=O)c3cc(O)ccc3o2)c(OC)c1OC
[1]
  GI50: 19.5 µM (inactive)
[52]
  GI50: 30.6 µM (inactive)
[2]
  GI50: 39.4 µM (inactive)
[3]
  GI50: 15.7 µM (inactive)
[4]
  GI50: 32.2 µM (inactive)
[5]
  GI50: 19.3 µM (inactive)
[6]
  GI50: 47.4 µM (inactive)
[7]
  GI50: 40.8 µM (inactive)
[53]
  GI50: 24.7 µM (inactive)
[9]
  GI50: 28.2 µM (inactive)
[10]
  GI50: 28.3 µM (inactive)
[54]
  GI50: 75.2 µM (inactive)
[11]
  GI50: 20.2 µM (inactive)
[12]
  GI50: 35.6 µM (inactive)
[14]
  GI50: 27.2 µM (inactive)
[15]
  GI50: 29 µM (inactive)
[16]
  GI50: 23.1 µM (inactive)
[17]
  GI50: 66.5 µM (inactive)
[55]
  GI50: 21.7 µM (inactive)
[18]
  GI50: 41.6 µM (inactive)
[19]
  GI50: 37.9 µM (inactive)
[20]
  GI50: 28.2 µM (inactive)
[56]
  GI50: 31.8 µM
[21]
  GI50: 27.9 µM (inactive)
[23]
  GI50: 24.8 µM (inactive)
[24]
  GI50: 53.7 µM (inactive)
[26]
  GI50: 68.5 µM (inactive)
[27]
  GI50: 26.5 µM (inactive)
[28]
  GI50: 30.5 µM (inactive)
[29]
  GI50: 35.6 µM (inactive)
[31]
  GI50: 36.8 µM (inactive)
[32]
  GI50: 33.2 µM (inactive)
[57]
  GI50: 12.9 µM (inactive)
[33]
  GI50: 18.4 µM (inactive)
[34]
  GI50: 42.8 µM (inactive)
[35]
  GI50: 34.5 µM (inactive)
[36]
  GI50: 32.6 µM (inactive)
[37]
  GI50: 18.2 µM (inactive)
[39]
  GI50: 28.7 µM (inactive)
[40]
  GI50: 32.4 µM (inactive)
[41]
  GI50: 12.2 µM (inactive)
[43]
  GI50: 45.3 µM (inactive)
[44]
  GI50: 44.2 µM (inactive)
[46]
  GI50: 24.8 µM (inactive)
[47]
  GI50: 4.73 µM (inactive)
[48]
  GI50: 12.7 µM (inactive)
[49]
  GI50: 42.7 µM (inactive)
[50]
  GI50: 36.4 µM (inactive)
[51]
  GI50: 35.3 µM (inactive)

## Cc1ccc(NC(=O)c2c(C)nc(=O)n3c2N(/N=C/c2ccc(Cl)cc2)CC3)cc1
[1]
  GI50: 16.3 µM (inactive)
[52]
  GI50: 16.8 µM (inactive)
[3]
  GI50: 23.1 µM (inactive)
[8]
  GI50: 19.8 µM (inactive)
[10]
  GI50: 18.7 µM (inactive)
[54]
  GI50: 21.7 µM (inactive)
[13]
  GI50: 19.2 µM (inactive)
[14]
  GI50: 14.4 µM (inactive)
[15]
  GI50: 17.8 µM (inactive)
[16]
  GI50: 18.8 µM (inactive)
[17]
  GI50: 21.4 µM (inactive)
[18]
  GI50: 16 µM (inactive)
[19]
  GI50: 17.1 µM (inactive)
[21]
  GI50: 16.5 µM (inactive)
[58]
  GI50: 15.9 µM (inactive)
[23]
  GI50: 26.7 µM (inactive)
[24]
  GI50: 16.3 µM (inactive)
[26]
  GI50: 11.9 µM (inactive)
[27]
  GI50: 13.2 µM (inactive)
[28]
  GI50: 15.6 µM (inactive)
[29]
  GI50: 17.9 µM (inactive)
[30]
  GI50: 23.8 µM (inactive)
[31]
  GI50: 14.2 µM (inactive)
[32]
  GI50: 14.7 µM (inactive)
[57]
  GI50: > 10 µM (inactive)
[34]
  GI50: 18.2 µM (inactive)
[35]
  GI50: 18.2 µM (inactive)
[36]
  GI50: 14.7 µM (inactive)
[37]
  GI50: 10.4 µM (inactive)
[38]
  GI50: 11.7 µM (inactive)
[39]
  GI50: 13.4 µM (inactive)
[40]
  GI50: 20 µM (inactive)
[43]
  GI50: 19.9 µM (inactive)
[46]
  GI50: 12.7 µM (inactive)
[47]
  GI50: 26.9 µM (inactive)
[48]
  GI50: 24.5 µM (inactive)
[49]
  GI50: 18.7 µM (inactive)
[50]
  GI50: 16.6 µM (inactive)
[51]
  GI50: 21.3 µM (inactive)

Source: ChEMBL document CHEMBL1201862, “PubChem BioAssay data set” (2004)
